From patent publication US7915291B2, “Hepatitis C virus inhibitors” (Bristol-Myers Squibb Company, priority 2002, dated 2011)
Like-named read-outs stand apart in the source and are kept apart here.

Key:
[1] = target: HCV NS3/4A protease complex, BMS strain (UniProt P27958, C1454S/C1711G, species not given/STRAIN_BMS); assay: Recombinant HCV NS3/4A protease complex FRET peptide assay (BMS strain); type: biochemical, HCV genotype 1a; conditions: NS3/4A BMS strain; read-out: IC50 range
From the text: Recombinant HCV NS3/4A Protease Complex FRET Peptide Assay
The purpose of this in vitro assay was to measure the inhibition of HCV NS3 protease complexes, derived from the BMS, H77C or J416S strains, as described below, by compounds of the present invention.
Serum from an HCV-infected patient was obtained from Dr. T. Wright, San Francisco Hospital. An engineered full-length cDNA (compliment deoxyribonucleic acid) template of the HCV genome (BMS strain) was constructed from DNA fragments obtained by reverse transcription-PCR(RT-PCR) of serum RNA (ribonucleic acid) and using primers selected on the basis of homology between other genotype 1a strains.
The BMS, H77C and J4L6S strains were used for production of recombinant NS3/4A protease complexes. […] Briefly, a three-lysine solubilizing tail was added at the 3′-end of the NS4A coding region. […] Briefly, NS3/4A expression was induced with 0.5 mM Isopropyl β-D-1-thiogalactopyranoside (IPTG) for 22 hr at 20° C. […] The crude protein extract was loaded on a Nickel—Nitrilotriacetic acid (Ni-NTA) column pre-equilibrated with buffer B (25 mM HEPES, pH8.0, 20% glycerol, 500 mM NaCl, 0.5% Triton-X100, 15 mM imidazole, 5 mM βME). The sample was loaded at a flow rate of 1 mL/min. The column was washed with 15 column volumes of buffer C (same as buffer B except with 0.2% Triton-X100). The protein was eluted with 5 column volumes of buffer D (same as buffer C except with 200 mM Imidazole).
NS3/4A protease complex-containing fractions were pooled and loaded on a desalting column Superdex-S200 pre-equilibrated with buffer D (25 mM HEPES, pH7.5, 20% glycerol, 300 mM NaCl, 0.2% Triton-X100, 10 mM βME). Sample was loaded at a flow rate of 1 mL/min. NS3/4A protease complex-containing fractions were pooled and concentrated to approximately 0.5 mg/ml.
The enzyme was stored at −80° C., thawed on ice and diluted prior to use in assay buffer. […] The sequence of this peptide is loosely based on the NS4A/NS4B natural cleavage site except there is an ester linkage rather than an amide bond at the cleavage site. The peptide substrate was incubated with one of the three recombinant NS3/4A complexes, in the absence or presence of a compound of the present invention, and the formation of fluorescent reaction product was followed in real time using a Cytofluor Series 4000.
The reagents were as follow: HEPES and Glycerol (Ultrapure) were obtained from GIBCO-BRL. Dimethyl Sulfoxide (DMSO) was obtained from Sigma. β-Mercaptoethanol was obtained from Bio Rad.
Substrate: 2 μM final concentration (from a 2 mM stock solution in DMSO stored at −20° C.). HCV NS3/4A type 1a (1b), 2-3 nM final concentration (from a 5 μM stock solution in 25 mM HEPES, pH7.5, 20% glycerol, 300 mM NaCl, 0.2% Triton-X100, 10 mM βME).
The assay was performed in a 96-well polystyrene black plate from Falcon. Each well contained 25 μl NS3/4A protease complex in assay buffer, 50 μof a compound of the present invention in 10% DMSO/assay buffer and 25 μl substrate in assay buffer. A control (no compound) was also prepared on the same assay plate. The enzyme complex was mixed with compound or control solution for 1 min before initiating the enzymatic reaction by the addition of substrate. The assay plate was read immediately using the Cytofluor Series 4000 (Perspective Biosystems). The instrument was set to read an […] at 25° C. Reactions were generally followed for approximately 15 minutes.
The percent inhibition was calculated with the following equation: 100−[(δFinh/δFcon)×100] where δF is the change in fluorescence over the linear range of the curve.

[2] = system: HCV replicon in Huh7 cells; assay: HCV replicon cell-based assay; design: species or system HCV strain 1B; conditions: HCV replicon, Huh7 cells, read-out: EC50 range
From the text: HCV Replicon Cell-based Assay
This system enabled us to evaluate the effects of our HCV Protease compounds on HCV RNA replication. Briefly, using the HCV strain 1B sequence described in the Lohmann paper (Assession number:AJ238799), an HCV cDNA was generated encoding the 5′ internal ribosome entry site (IRES), the neomycin resistance gene, the EMCV (encephalomyocarditis virus)-IRES and the HCV nonstructural proteins, NS3-NS5B, and 3′ non-translated region (NTR). In vitro transcripts of the cDNA were transfected into the human hepatoma cell line, Huh7. […] Resulting cell lines were characterized for positive and negative strand RNA production and protein production over time.
Huh7 cells, constitutively expressing the HCV replicon, were grown in Dulbecco's Modified Eagle Media (DMEM) containing 10% Fetal calf serum (FCS) and 1 mg/ml G418 (Gibco-BRL). Cells were seeded the night before (1.5×10^4 cells/well) in 96-well tissue-culture sterile plates. Compound and no compound controls were prepared in DMEM containing 4% FCS, 1:100 Penicillin/Streptomysin, 1:100 L-glutamine and 5% DMSO in the dilution plate (0.5% DMSO final concentration in the assay). Compound/DMSO mixes were added to the cells and incubated for 4 days at 37° C. After 4 days, plates were rinsed thoroughly with Phosphate-Buffered Saline (PBS) (3 times 150 μl). The cells were lysed with 25 μl of a lysis assay reagent containing the FRET peptide (RET S1, as described for the in vitro enzyme assay). The lysis assay reagent was made from 5× cell Luciferase cell culture lysis reagent(Promega #E153A) diluted to 1× with distilled water, NaCl added to 150 mM final, the FRET peptide diluted to 10 μM final from a 2 mM stock in 100% DMSO. The plate was then placed into the Cytofluor 4000 instrument which had been set to 340 nm excitation/490 emission, automatic mode for 21 cycles and the plate read in a kinetic mode. EC50 determinations were carried out as described for the IC50 determinations.
Cells were lyzed using the Rneasy kit (Qiagen). […] All primers were designed with ABI Prism 7700 software and obtained from Biosearch Technologies, Novato, Calif. Samples containing known concentrations of HCV RNA transcript were run as standards. Using the following cycling protocol (50° C., 30 min; 95° C., 5 min; 40 cycles of 95° C., 15 sec, 60° C., 1 min), HCV RNA expression was quantitated as described in the Perkin Elmer manual using the ABI Prism 7700 Sequence Detector.

SMILES | IC50 [1] | EC50 ([2]; Hepatitis C virus, Huh-7) | EC50 [2]
C=CC1CC1(NC(=O)C1CC(Oc2nc(-c3ccccc3)nc3ccc(OC)cc23)CN1C(=O)[C@@H](NC(=O)OC(C)(C)C)C(C)(C)C)C(=O)NS(=O)(=O)C(C)C (mixture of isomers) [Compound 45] | 100 to 1000 nM | 1000 to 10000 nM | –
C=CC1CC1(NC(=O)C1CC(Oc2nc(C3CC3)nc3cc(OC)c(OC)cc23)CN1C(=O)[C@@H](NC(=O)OC(C)(C)C)C(C)(C)C)C(=O)NS(=O)(=O)C(C)C (mixture of isomers) [Compound 46] | 100 to 1000 nM | 1000 to 10000 nM | –
C=C[C@@H]1C[C@]1(NC(=O)[C@@H]1C[C@@H](Oc2nccc3cc(OC)ccc23)CN1C(=O)C(NC(=O)OC(C)(C)C)C(C)c1ccccc1)C(=O)NS(=O)(=O)C1CC1 (single isomer, unassigned) [Compound 135] | < 100 nM | 100 to 1000 nM | –
C=C[C@@H]1C[C@]1(NC(=O)[C@@H]1C[C@@H](Oc2nccc3cc(OC)ccc23)CN1C(=O)C(NC(=O)OC(C)(C)C)C(C)c1ccccc1)C(=O)NS(=O)(=O)C1CC1 (single isomer, unassigned) [Compound 136] | < 100 nM | – | 100 to 1000 nM
C=C[C@@H]1C[C@]1(NC(=O)[C@@H]1C[C@@H](Oc2cc(-c3ccccc3)nc3c(C)noc23)CN1C(=O)[C@@H](NC(=O)OC(C)(C)C)C(C)(C)C)C(=O)NS(=O)(=O)C1CC1 [Compound 1] | < 100 nM | < 100 nM | –
C=C[C@@H]1C[C@]1(NC(=O)[C@@H]1C[C@@H](Oc2cc(-c3ccccc3)nc3nc(C)ccc23)CN1C(=O)[C@@H](NC(=O)OC(C)(C)C)C(C)(C)C)C(=O)NS(=O)(=O)C1CC1 [Compound 2] | < 100 nM | 100 to 1000 nM | –
C=C[C@@H]1C[C@]1(NC(=O)[C@@H]1C[C@@H](Oc2cc(-c3ccc(OC)cc3)nc3c(C)noc23)CN1C(=O)[C@@H](NC(=O)OC(C)(C)C)C(C)(C)C)C(=O)NS(=O)(=O)C1CC1 [Compound 3] | < 100 nM | < 100 nM | –
C=C[C@@H]1C[C@]1(NC(=O)[C@@H]1C[C@@H](Oc2cc(-c3ccc(F)cc3)nc3c(C)noc23)CN1C(=O)[C@@H](NC(=O)OC(C)(C)C)C(C)(C)C)C(=O)NS(=O)(=O)C1CC1 [Compound 4] | < 100 nM | < 100 nM | –
C=C[C@@H]1C[C@]1(NC(=O)[C@@H]1C[C@@H](Oc2cc(-c3cccc(OC)c3)nc3c(C)noc23)CN1C(=O)[C@@H](NC(=O)OC(C)(C)C)C(C)(C)C)C(=O)NS(=O)(=O)C1CC1 [Compound 5] | < 100 nM | < 100 nM | –
C=C[C@@H]1C[C@]1(NC(=O)[C@@H]1C[C@@H](Oc2cc(-c3ccccc3OC)nc3c(C)noc23)CN1C(=O)[C@@H](NC(=O)OC(C)(C)C)C(C)(C)C)C(=O)NS(=O)(=O)C1CC1 [Compound 6] | 100 to 1000 nM | 100 to 1000 nM | –
C=C[C@@H]1C[C@]1(NC(=O)[C@@H]1C[C@@H](Oc2ccc3ccccc3n2)CN1C(=O)[C@@H](NC(=O)OC(C)(C)C)C(C)(C)C)C(=O)NS(=O)(=O)C1CC1 [Compound 7] | < 100 nM | 100 to 1000 nM | –
C=CC1CC1(NC(=O)[C@@H]1C[C@@H](Oc2cc(C(F)(F)F)nc3nc(C)ccc23)CN1C(=O)[C@@H](NC(=O)OC(C)(C)C)C(C)(C)C)C(=O)NS(=O)(=O)C1CC1 (some centres unmarked) [Compound 8] | 100 to 1000 nM | 1000 to 10000 nM | –
C=CC1CC1(NC(=O)[C@@H]1C[C@@H](Oc2cc(CC)nc3c(C)noc23)CN1C(=O)[C@@H](NC(=O)OC(C)(C)C)C(C)(C)C)C(=O)NS(=O)(=O)C1CC1 (some centres unmarked) [Compound 9] | < 100 nM | 100 to 1000 nM | –
C=CC1CC1(NC(=O)[C@@H]1C[C@@H](Oc2cc(-c3ccccc3)nc3c(C)noc23)CN1C(=O)[C@@H](NC(=O)OC(C)(C)C)C(C)(C)C)C(=O)NS(=O)(=O)C1CC1 (some centres unmarked) [Compound 10] | < 100 nM | < 100 nM | –
C=C[C@@H]1C[C@]1(NC(=O)[C@@H]1C[C@@H](Oc2nccc3cc(OC)ccc23)CN1C(=O)[C@@H](NC(=O)OC(C)(C)C)C(C)(C)C)C(=O)NS(=O)(=O)C1CC1 [Compound 11] | < 100 nM | < 100 nM | –
C=C[C@@H]1C[C@]1(NC(=O)[C@@H]1C[C@@H](Oc2nccc3cc(OC)ccc23)CN1C(=O)[C@@H](NC(=O)OC(C)(C)C)C(C)C)C(=O)NS(=O)(=O)C1CC1 [Compound 12] | < 100 nM | < 100 nM | –
C=C[C@@H]1C[C@]1(NC(=O)[C@@H]1C[C@@H](Oc2nccc3cc(OC)ccc23)CN1C(=O)[C@@H](NC(=O)OC(C)(C)C)[C@H](C)CC)C(=O)NS(=O)(=O)C1CC1 [Compound 13] | < 100 nM | < 100 nM | –
CC[C@@H]1C[C@]1(NC(=O)[C@@H]1C[C@@H](Oc2nccc3cc(OC)ccc23)CN1C(=O)[C@@H](NC(=O)OC(C)(C)C)C(C)(C)C)C(=O)NS(=O)(=O)C1CC1 [Compound 14] | < 100 nM | < 100 nM | –
CC[C@@H]1C[C@]1(NC(=O)[C@@H]1C[C@@H](Oc2nccc3cc(OC)ccc23)CN1C(=O)[C@@H](NC(=O)OC(C)(C)C)C(C)(C)C)C(=O)NS(=O)(=O)C(C)C [Compound 15] | 100 to 1000 nM | 1000 to 10000 nM | –
C=C[C@@H]1C[C@]1(NC(=O)[C@@H]1C[C@@H](Oc2nccc3cc(OC)ccc23)CN1C(=O)[C@@H](NC(=O)N[C@@H](C)COC)C(C)(C)C)C(=O)NS(=O)(=O)C1CC1 [Compound 153] | – | < 100 nM | –
C=C[C@@H]1C[C@]1(NC(=O)[C@@H]1C[C@@H](Oc2ncc(OC)c3ccc(Cl)cc23)CN1C(=O)[C@@H](NC(=O)OC(C)(C)C)C(C)(C)C)C(=O)NS(=O)(=O)C1CC1 [Compound 277] | – | < 100 nM | –
C=C[C@@H]1C[C@]1(NC(=O)[C@@H]1C[C@@H](Oc2ccnc3cc(OC)ccc23)CN1C(=O)[C@@H](NC(=O)OC(C)(C)C)C(C)(C)C)C(=O)NS(=O)(=O)C1CC1 [Compound 376] | – | < 100 nM | –
